Data reported in the supplement of paper PMC4862054.

Tests used:
Settings in all cases: incubation time: 72 h
MDA-MB-453 = assay: drug sensitivity score (DSS), CellTiter-Glo (DSS (AUC-based score)); higher = stronger drug effect (viability inhibition or cytotoxicity); extreme values may be limits of the assay
Procedure, shortened: (§1)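 Normalisation on every plate relied on 0.1 % DMSO and a positive kill control. The plates, 384-well format, held compound at 5 concentrations 10-fold apart across a compound-specific 10,000-fold range, and breast cancer cell lines in 20 µl suspension were incubated on them for 72 h before CellTox Green and then CellTiter-Glo readings. The drug sensitivity score derives from the area under the fitted dose-response curve.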

CAL-51 = assay: as above
Procedure, shortened: as §1

HCC1143 = assay: as above
Procedure, shortened: as §1

MDA-MB-468 = assay: as above
Procedure, shortened: as §1

MFM-223 = assay: as above
Procedure, shortened: as §1

CAL-85-1 [1] = assay: as above
Procedure, shortened: as §1

MCF-10A = assay: as above
Procedure, shortened: as §1

Hs578T [2] = assay: as above
Procedure, shortened: as §1

HCC1599 = assay: as above
Procedure, shortened: as §1

HCC1937 = assay: as above
Procedure, shortened: as §1

CAL-148 = assay: as above
Procedure, shortened: as §1

MDA-MB-436 [3] = assay: as above
Procedure, shortened: as §1

HDQ-P1 [4] = assay: as above
Procedure, shortened: as §1

MDA-MB-231 = assay: as above
Procedure, shortened: as §1

DU-4475 = assay: as above
Procedure, shortened: as §1

SK-BR-3 = assay: as above
Procedure, shortened: as §1

BT-549 [5] = assay: as above
Procedure, shortened: as §1

CAL-120 [6] = assay: as above
Procedure, shortened: as §1

BT-474 = assay: as above
Procedure, shortened: as §1

CAL-85-1 [7] = assay: normalised viability (% of control), CellTiter-Blue; higher = more viable cells (about 100 = DMSO control)
Procedure, shortened: (§2)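 Seeded at 20 µl suspension per well onto compound-loaded 384-well plates, breast cancer cell lines were incubated 72 h. CellTiter-Blue fluorescence at 560/590 nm was then read, with each plate normalised to vehicle (100) and a positive kill control (0). Normalised viability is reported at a single listed concentration of the series.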

Hs578T [8] = assay: as above
Procedure, shortened: as §2

MDA-MB-436 [9] = assay: as above
Procedure, shortened: as §2

HDQ-P1 [10] = assay: as above
Procedure, shortened: as §2

BT-549 [11] = assay: as above
Procedure, shortened: as §2

CAL-120 [12] = assay: as above
Procedure, shortened: as §2

C/C(=C\c1csc(C)n1)[C@@H]1C[C@@H]2O[C@]2(C)CCC[C@H](C)[C@H](O)[C@@H](C)C(=O)C(C)(C)[C@@H](O)CC(=O)N1 [Ixabepilone]
Settings	drug sensitivity score
BT-474	1.23
BT-549 [5]	13.9
CAL-51	14.8
CAL-85-1 [1]	2.2
CAL-120 [6]	0
CAL-148	0
DU-4475	0
HCC1143	0
HCC1599	0
HCC1937	0
HDQ-P1 [4]	0
Hs578T [2]	0
MCF-10A	0
MDA-MB-231	0
MDA-MB-436 [3]	0
MDA-MB-453	0
MDA-MB-468	13.9
MFM-223	0
SK-BR-3	0

normalised viability [%]
Settings	BT-549 [11]	CAL-85-1 [7]	CAL-120 [12]	HDQ-P1 [10]	Hs578T [8]	MDA-MB-436 [9]
0.3 nM	–	83.4	–	91.1	–	–
1 nM	69.2	–	75.6	–	107	88.8
3 nM	–	87.8	–	76.4	–	–
10 nM	–	88.9	–	95.3	–	–
100 nM	96.9	–	78.3	–	98.8	90.1
1000 nM	19.6	–	50.4	–	25	51.7
